Laboratory results as given in the supplement of paper PMC7661543.
± gives the standard deviation of the averaged measurements.

Key:
Assay in all cases: relative cell number vs DMSO control (72 h) (% of DMSO); higher = less growth inhibition (more cells)
Conditions in all cases: sgRNA knockout: sgNT
[1] = tested on: ZR-75-1
Protocol: (§1)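 QMAP-Seq: a pool of 5 breast cancer cell lines (ZR-75-1, SKBR3, HCC-38, MDA-MB-231, BT-20), each carrying 12 doxycycline-inducible Cas9 sgRNA perturbations (11 knockouts plus non-targeting sgNT), was treated with compounds for 72 h at four 10-fold doses (10 nM-10 uM or 1 nM-1 uM range). Barcodes were amplified and sequenced, and cell number was interpolated from 293T spike-in standard curves. The result is expressed as % of the median of DMSO wells. Two biological replicates.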

[2] = tested on: SKBR3
Protocol: as §1

[3] = tested on: HCC-38
Protocol: as §1

[4] = tested on: BT-20
Protocol: as §1

[5] = tested on: MDA-MB-231
Protocol: as §1

| SMILES | relative cell number ([1]; 10 nM) | relative cell number ([1]; 100 nM) | relative cell number ([1]; 1000 nM) | relative cell number ([1]; 10000 nM) | relative cell number ([2]; 10 nM) | relative cell number ([2]; 100 nM) | relative cell number ([2]; 1000 nM) | relative cell number ([2]; 10000 nM) | relative cell number ([3]; 10 nM) | relative cell number ([3]; 100 nM) | relative cell number ([3]; 1000 nM) | relative cell number ([3]; 10000 nM) | relative cell number ([4]; 10 nM) | relative cell number ([4]; 100 nM) | relative cell number ([4]; 1000 nM) | relative cell number ([4]; 10000 nM) | relative cell number ([5]; 10 nM) | relative cell number ([5]; 100 nM) | relative cell number ([5]; 1000 nM) | relative cell number ([5]; 10000 nM) |
| --- | --- | --- | --- | --- | --- | --- | --- | --- | --- | --- | --- | --- | --- | --- | --- | --- | --- | --- | --- | --- |
| C=C1C[C@@H]2[C@H](CC[C@]3(C)C(=O)CC[C@@H]23)[C@@]2(C)C=CC(=O)C=C12 [Exemestane] | 123 ± 22 | 82.5 ± 26 | 104 ± 67 | 99 ± 4.8 | 108 ± 22 | 93.4 ± 18 | 115 ± 9.4 | 102 ± 12 | 108 ± 28 | 92 ± 12 | 113 ± 3.1 | 109 ± 25 | 99.8 ± 6 | 89.5 ± 1.1 | 103 ± 5.9 | 95.4 ± 9.2 | 89.3 ± 13 | 88.2 ± 22 | 80.5 ± 6 | 69.8 ± 21 |
| CC(C)n1c(/C=C/C(O)CC(O)CC(=O)O)c(-c2ccc(F)cc2)c2ccccc21 (stereo not given) [Fluvastatin] | 78.2 ± 28 | 83.5 ± 20 | 62.6 ± 22 | 78.7 ± 1.4 | 64.9 ± 4 | 87.3 ± 1.6 | 82.5 ± 41 | 51 ± 34 | 110 ± 7.6 | 102 ± 6.7 | 96.6 ± 11 | 65.4 ± 2.2 | 67.8 ± 3.3 | 95 ± 7 | 97.3 ± 4.6 | 72.2 ± 16 | 108 ± 46 | 92.1 ± 46 | 30.8 ± 7.9 | 10.6 ± 3.6 |
| C[C@]12CC[C@@H]3c4ccc(O)cc4C[C@@H](CCCCCCCCC[S+]([O-])CCCC(F)(F)C(F)(F)F)[C@H]3[C@@H]1CC[C@@H]2O (stereo not given in full) [Fulvestrant] | 66.3 ± 28 | 41.9 ± 3.1 | 73.3 ± 26 | 84 ± 39 | 90.75 ± 0.73 | 48.8 ± 3.3 | 65.8 ± 26 | 65.9 ± 19 | 83.8 ± 12 | 102 ± 2 | 103 ± 6.4 | 94.5 ± 1.7 | 95.9 ± 6.4 | 79.5 ± 6.8 | 86.6 ± 16 | 110 ± 24 | 83.6 ± 3.7 | 93.5 ± 22 | 89.8 ± 4 | 92 ± 12 |
| OCCn1cc(-c2ccc3c(c2)CC/C3=N\O)c(-c2ccncc2)n1 [GDC0879] | 128.7 ± 1.1 | 137 ± 11 | 131 ± 12 | 122 ± 81 | 114 ± 27 | 151 ± 3.4 | 81.8 ± 29 | 110 ± 11 | 104 ± 17 | 124 ± 10 | 134 ± 12 | 107 ± 4.3 | 103 ± 17 | 112 ± 4.5 | 130 ± 8 | 110 ± 1.5 | 114 ± 15 | 92 ± 2.5 | 106 ± 4.8 | 105 ± 5.9 |
| CS(=O)(=O)N1CCN(Cc2cc3nc(-c4cccc5[nH]ncc45)nc(N4CCOCC4)c3s2)CC1 [GDC0941] | 94.4 ± 15 | 62.4 ± 20 | 52.5 ± 23 | 26.1 ± 8.7 | 96.1 ± 17 | 67.8 ± 33 | 38.6 ± 4.8 | 35.6 ± 8.4 | 94.3 ± 5.9 | 95 ± 5.9 | 79.2 ± 12 | 33.5 ± 0.44 | 106 ± 16 | 82.9 ± 45 | 59.6 ± 12 | 55.9 ± 24 | 126 ± 30 | 84 ± 21 | 66.3 ± 8.2 | 44.3 ± 12 |
| CC(C)(C)OC(=O)CN(Cc1ccc(Cl)cc1)Cc1ccc([N+](=O)[O-])s1 [GSK4112] | 100 ± 4.8 | 148 ± 35 | 86.4 ± 8.4 | 100 ± 29 | 87.6 ± 3.9 | 89 ± 20 | 66.5 ± 15 | 117 ± 11 | 78.9 ± 4.7 | 95.1 ± 11 | 95.8 ± 10 | 96.5 ± 11 | 73.6 ± 2 | 111 ± 14 | 94 ± 20 | 104 ± 3.4 | 82.6 ± 9.2 | 96.4 ± 7.3 | 82.9 ± 9.5 | 114 ± 40 |
